From patent publication US20260337214A1, “IRON BASED MRI PROBES” (The General Hospital Corporation, priority 2022, published 2026)

Tests used:
Type in all cases: physicochemical
[1] = T1-relaxivity (r1) of Fe3+ versus Fe2+ complex at pH 7.4; conditions: for relaxivity r1: normalized to Fe concentration, Fe^2+ formed in situ with excess sodium ascorbate
Excerpt: FIG. 7 compares the relaxivity (r1; the Fe induced increase in T1 relaxation rate (R1) normalized to Fe concentration in mM) recorded for Fe^3+-CDTA-Ph-3,5-CF3 and Fe^2+-CDTA-Ph-3,5-CF3 at pH 7.4.
(§1) The term “relaxivity” as used herein, refers to the increase in either of the MR quantities 1/T1 or 1/T2 per millimolar (mM) concentration of paramagnetic ion or contrast agent, which quantities may be different if the contrast agent contains a multiplicity of paramagnetic ions, wherein T1 is the longitudinal or spin-lattice relaxation time, and T2 is the transverse or spin-spin relaxation time of water protons or other imaging or spectroscopic nuclei, including protons found in molecules other than water. Relaxivity is expressed in units of mM^−1s^−1.
FIG. 7 compares the relaxivity (r1; the Fe induced increase in T1 relaxation rate (R1) normalized to Fe concentration in mM) recorded for Fe^3+-CDTA-Ph-3,5-CF3 and Fe^2+-CDTA-Ph-3,5-CF3 at pH 7.4. The Fe^2+ complex was formed in situ by addition of excess sodium ascorbate. The r1 values for the Fe^3+ complex ([…] mM^−1s^−1) is 7.5-times greater than the sister Fe^2+ complex (2.8±0.003 mM^−1s^−1).

[2] = Cyclic voltammetry; conditions: 0.5 M KNO3, GC working, Ag/AgCl reference, Pt counter electrode
[3] = T1-relaxivity (r1) as a function of pH
Excerpt: FIG. 5A compares the pH-dependence on T1-relaxivity (r1; the Fe induced increase in T1 relaxation rate (R1) normalized to Fe concentration in mM) for the structurally related Fe^3+ complexes Fe-CDTA-Ph-3,5-CF3 and Fe-PyCy2AI.
as §1
FIG. 5, Panel A, compares the pH-dependence on T1-relaxivity (r1; the Fe induced increase in T1 relaxation rate (R1) normalized to Fe concentration in mM) for the structurally related Fe^3+ complexes Fe-CDTA-Ph-3,5-CF3 and Fe-PyCy2AI.

[4] = pH-potentiometric titration combined with EDTA competition assay; conditions: estimated
Method: The title compound was synthesized in situ by mixing the compound obtained in step 1 with 0.5 molar equiv. Fe2(SO4)3, (i.e., 1 molar equiv. Fe^3+). In one representative sample preparation, used for pH-potentiometry measurements, 7.2 mg (0.011 mmol) Ligand were mixed with 4.4 mg (0.011 mmol Fe) were mixed in 3.4 mL water (with 0.1 M NaCl), and the pH adjusted using 0.1 M NaOH. ESI-MS for [C22H22F6FeN3O7]^−: m/z [M^−]=609.1 (calc.); m/z=609.1(obsv.)
From the titration data (performed in combination with EDTA competition assay at pH 3), a log K=23.7 s estimated for Fe-CDTA-Ph-3,5-CF3.

| ratio of r1 Fe^3+ complex to Fe^2+ complex ([1]; pH 7.4) | relaxivity r1 ([1]; pH 7.4) [mM⁻¹ s⁻¹] | ratio of r1 Fe^3+ complex to Fe^2+ complex (heading of Example 5) ([1]; stated in heading) | oxidation and reduction waves, reversibility ([2]; pH 3) | separation of oxidation and reduction waves ([2]; pH 8) [V] | speciation at pH 7.4 ([3]; pH 7.4) | r1 (T1-relaxivity), comparison in words ([3]; pH 7.4, compared with Fe-PyC3A / Fe-PyCy2AI) | pKa ([3]; r1 vs pH, read-out: pKa of the Fe^3+ water co-ligand) | log K (Fe^3+ complex stability) ([4]; pH-potentiometric titration in combination with EDTA competition assay at pH 3) | pKa ([4]; water, 0.1 m nacl, pH-potentiometric titration, 1 molar equiv. Fe^3+, read-out: pKa (deprotonation of ML to MLH−1)) | SMILES |
| --- | --- | --- | --- | --- | --- | --- | --- | --- | --- | --- |
| 7.5 -times | 2.1 ± 0.11 | 10 -fold | reversible oxidation and reduction waves | ~1 | dominated by the monomeric complex | much greater | > 7.4 | 23.7 | 4.9 | O=C(O)CN(CC(=O)O)C1CCCCC1N(CC(=O)O)CC(=O)Nc1cc(C(F)(F)F)cc(C(F)(F)F)c1.[Fe+3] (centres unmarked) [Fe-CDTA-Ph-3,5-CF3] |
| – | 2.8 ± 0.003 | – | – | – | – | – | – | – | – | O=C(O)CN(CC(=O)O)C1CCCCC1N(CC(=O)O)CC(=O)Nc1cc(C(F)(F)F)cc(C(F)(F)F)c1.[Fe+2] (centres unmarked) [Fe^2+-CDTA-Ph-3,5-CF3] |
